According to patent US7759385B2, “4-substituted 1-aminocyclohexane compounds for utilization as ORL1-receptor and mu-opiate receptor ligands” (priority 2002, dated 2010):

Biological target: human μ opiate receptor (Homo sapiens, UniProt P35372)
Test: μ opiate receptor binding assay, membrane preparation of CHO-K1 cells, [3H]-naloxone (or DAMGO) displacement
Settings: radioligand [3H]-naloxone 1 nmole/l; Cheng-Prusoff

human μ opiate receptor, sequence (P35372 whole entry): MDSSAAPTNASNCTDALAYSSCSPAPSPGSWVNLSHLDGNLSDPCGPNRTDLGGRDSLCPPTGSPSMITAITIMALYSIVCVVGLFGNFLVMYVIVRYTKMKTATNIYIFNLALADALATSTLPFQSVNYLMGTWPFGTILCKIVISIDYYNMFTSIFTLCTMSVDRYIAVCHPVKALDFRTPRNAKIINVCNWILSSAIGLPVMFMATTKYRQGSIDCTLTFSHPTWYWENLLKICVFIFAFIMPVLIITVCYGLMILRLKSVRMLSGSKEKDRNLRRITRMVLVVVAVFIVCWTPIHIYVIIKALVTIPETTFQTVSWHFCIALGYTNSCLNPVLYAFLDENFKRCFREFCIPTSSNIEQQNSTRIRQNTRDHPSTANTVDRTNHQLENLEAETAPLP

Question: CN(C)C1(c2ccccc2)CCC(NC(=O)N2CCC(C3C=Nc4ccc(F)cc43)CC2)CC1 (stereo not shown) [Example 34, 4-(5-fluoro-1H-indol-3-yl)piperidine-1-carboxylic acid-(4-dimethylamino-4-phenylcyclohexyl)-amide] was tested. Which Ki did it give?
Answer: 120 nM
